Assay results: patent publication US12091425B2 (AMGEN INC., priority 2016, dated 2024)
pIC50: −log10 of the molar value.

These compounds were tested against T1, Mcl-1/Bim interaction, recombinant human Mcl-1 (171-327) (Homo sapiens, UniProt Q07820) (assay: Cell free Mcl-1: Bim Affinity Assay (Mcl-1 HTRF)). Conditions: TR-FRET, 0.1 nM Mcl-1 (171-327), 0.05 nM biotin-Bim (51-76).
T1 construct: made in house
Format: binding
How it was run: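 Read-out is time-resolved FRET after overnight incubation, using a biotin-labelled peptide from human Bim (51-76) as the binding partner; IC50 was derived from competition curves.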

T1 sequence (Q07820 171-327): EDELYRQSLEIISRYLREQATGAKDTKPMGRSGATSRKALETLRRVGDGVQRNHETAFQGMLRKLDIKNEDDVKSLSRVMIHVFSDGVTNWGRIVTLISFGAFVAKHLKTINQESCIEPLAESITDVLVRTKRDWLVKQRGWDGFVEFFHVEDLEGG

pIC50	Compound
7.59	CO[C@@H]1CCCCS(=O)(=O)NC(=O)c2ccc3c(c2)N(C[C@@H]2CC[C@H]21)C[C@@]1(CCCc2cc(Cl)ccc21)CO3 [Example 226]
8.72	CCN1CC/C=C\[C@H](O)[C@@H]2CC[C@H]2CN2C[C@@]3(CCCc4cc(Cl)ccc43)COc3ccc(cc32)C(=O)NS1(=O)=O (single isomer, unassigned) [Example 30]
8.80	CC[C@@H]1CC/C=C/[C@H](OCC(C)(C)O)[C@@H]2CC[C@H]2CN2C[C@@]3(CCCc4cc(Cl)ccc43)COc3ccc(cc32)C(=O)NS1(=O)=O [Example 972, (1S,3′R,6′R,7′S,8′E,12′R)-6-chloro-12′-ethyl-7′-(2-hydroxy-2-methylpropoxy)-3,4-dihydro-2H,15′H-spiro[naphthalene-1,22′-[20]oxa[13]thia[1,14]diazatetracyclo[14.7.2.0^3,6.0^19,24]pentacosa [8,16,18,24]tetraen]-15′-one 13′,13′-dioxide]

Same assay, conditions: cell free Mcl-1:Bim TR-FRET, recombinant human Mcl-1 (171-327)

pIC50	Compound
7.62	O=C1NS(=O)(=O)CC/C=C\CC[C@@H]2CC[C@H]2CN2C[C@@]3(CCCc4cc(Cl)ccc43)COc3ccc1cc32 [Example 499, (1S,3′R,6′R,9′Z)-6-chloro-3,4-dihydro-2H,15′H-spiro[naphthalene-1,22′-[20]oxa[13]thia[1,14]diazatetracyclo[14.7.2.0^3,6.0^19,24]pentacosa [9,16,18,24]tetraen]-15′-one 13′,13′-dioxide]
8.36	O=C1NS(=O)(=O)CC/C=C\C[C@@H](O)[C@@H]2CC[C@H]2CN2C[C@@]3(CCCc4cc(Cl)ccc43)COc3ccc1cc32 (single isomer, unassigned) [Example 845]
7.87	CC#CC1=CC(O)CCC(C)S(=O)(=O)NC(=O)c2ccc3c(c2)N(CC2CCC12)CC1(CCCc2cc(Cl)ccc21)CO3 (single isomer, unassigned) [Example 606]
8.60	O=C1NS(=O)(=O)CCC/C=C/C[C@@H]2CC[C@H]2CN2C[C@@]3(CCCc4cc(Cl)ccc43)COc3ccc1cc32 (single isomer, unassigned) [Example 495]
7.37	O=C1NS(=O)(=O)CC/C=C\C[C@H](O)[C@@H]2CC[C@H]2CN2C[C@@]3(CCCc4ccccc43)COc3ccc1cc32 [Example 807, (1S,3′R,6′R,7′S,9′Z)-7′-hydroxy-3,4-dihydro-2H,15′H-spiro[naphthalene-1,22′-[20]oxa[13]thia [1,14]diazatetracyclo[14.7.2.0^3,6.0^19,24]pentacosa[9,16,18,24]tetraen]-15′-one 13′,13′-dioxide]
8.20	C=C1/C=C/CC[C@@H](CC)S(=O)(=O)NC(=O)c2ccc3c(c2)N(C[C@@H]2CC[C@@H]12)C[C@@]1(CCCc2cc(Cl)ccc21)CO3 [Example 872, (1S,3′R,6′R,8′E,12′R)-6-chloro-12′-ethyl-7′-methylidene-3,4-dihydro-2H,15′H-spiro[naphthalene-1,22′-[20]oxa[13]thia[1,14]diazatetracyclo[14.7.2.0^3,6.0^19,24]pentacosa [8,16,18,24]tetraen]-15′-one 13′,13′-dioxide]
8.87	C[C@@H]1CC/C=C/[C@H](NC(=O)N(C)C)[C@@H]2CC[C@H]2CN2C[C@@]3(CCCc4cc(Cl)ccc43)COc3ccc(cc32)C(=O)NS1(=O)=O [Example 601, 3-((1S,3′R,6′R,7′S,8′E,12′R)-6-chloro-12′-methyl-13′,13′-dioxido-15′-oxo-3,4-dihydro-2H-spiro[naphthalene-1,22′-[20]oxa[13]thia[1,14]diazatetracyclo[14.7.2.0^3,6.0^19,24]pentacosa [8,16,18,24]tetraen]-7′-yl)-1,1-dimethylurea-trifluoroacetate]
8.74	CC[C@@H]1CCCCC[C@H](O)[C@@H]2CC[C@H]2CN2C[C@@]3(CCCc4cc(Cl)ccc43)COc3ccc(cc32)C(=O)NS1(=O)=O [Example 554, (1S,3′R,6′R,7′S,13′R)-6-chloro-13′-ethyl-7′-hydroxy-3,4-dihydro-2H,16′H-spiro[naphthalene-1,23′-[21]oxa[14]thia[1,15]diazatetracyclo[15.7.2.0^3,6.0^20,25]hexacosa[17,19,25]trien]-16′-one 14′,14′-dioxide]

Compound	pIC50
O=C1NS(=O)(=O)CCCCC[C@@H](NC(=O)C2CC2)[C@@H]2CC[C@H]2CN2C[C@@]3(CCCc4cc(Cl)ccc43)COc3ccc1cc32 (single isomer, unassigned) [Example 937]	8.32
O=C1NS(=O)(=O)CCC/C=C/C[C@H](O)[C@@H]2CC[C@H]2CN2C[C@@]3(CCCc4cc(Cl)ccc43)COc3ccc1cc32 (single isomer, unassigned) [Example 833, (1S,3′R,6′R,7′S,9′E)-6-chloro-7′-hydroxy-3,4-dihydro-2H,16′H-spiro[naphthalene-1,23′-[21]oxa[14]thia[1,15]diazatetracyclo[15.7.2.0^3,6.0^20,25]hexacosa[9,17,19,25]tetraen]-16′-one 14′,14′-dioxide or (1S,3′R,6′R,7′S,9′Z)-6-chloro-7′-hydroxy-3,4-dihydro-2H,16′H-spiro[naphthalene-1,23′-[21]oxa[14]thia[1,15]diazatetracyclo[15.7.2.0^3,6.0^20,25]hexacosa [9,17,19,25]tetraen]-16′-one 14′,14′-dioxide]	8.29
CC(=O)N1CC[C@H](O)[C@@H]2CC[C@H]2CN2C[C@@]3(CCCc4cc(Cl)ccc43)COc3ccc(cc32)C(=O)NS(=O)(=O)CC1 (single isomer, unassigned) [Example 778]	8.16
O=C1NS(=O)(=O)CCOC[C@@H](O)C[C@H]2CC[C@H]2CN2C[C@@]3(CCCc4cc(Cl)ccc43)COc3ccc1cc32 (single isomer, unassigned) [Example 780, (3R,6R,8S,22S)-6′-chloro-8-hydroxy-3′,4′-dihydro-2′H,15H-spiro[10,20-dioxa-13-thia-1,14-diazatetracyclo[14.7.2.0^3,6.0^19,24]pentacosa-16,18,24-triene-22, 1′-naphthalen]-15-one-13, 13-dioxide or (3R,6R,8R,22S)-6′-chloro-8-hydroxy-3′,4′-dihydro-2′H,15H-spiro[10,20-dioxa-13-thia-1,14-diazatetracyclo[14.7.2.0^3,6.0^19,24]pentacosa-16,18,24-triene-22, 1′-naphthalen]-15-one-13, 13-dioxide]	8.31
O=C(C[C@@H]1CC/C=C/[C@H](O)[C@@H]2CC[C@H]2CN2C[C@@]3(CCCc4cc(Cl)ccc43)COc3ccc(cc32)C(=O)NS1(=O)=O)Nc1cccc(Cl)c1 (single isomer, unassigned) [Example 627]	8.00
O=C1NS(=O)(=O)CCCOC[C@@H](O)[C@@H]2CC[C@H]2CN2C[C@@]3(CCCc4cc(Cl)ccc43)COc3ccc1cc32 (single isomer, unassigned) [Example 923, (3R,6R,7S,22S)-6′-chloro-7-hydroxy-3′,4′-dihydro-2′H,15H-spiro[9,20-dioxa-13-thia-1,14-diazatetracyclo[14.7.2.0^3,6.0^19,24]pentacosa-16,18,24-triene-22,1′-naphthalen]-15-one 13,13-dioxide or (3R,6R,7R,22S)-6′-chloro-7-hydroxy-3′,4′-dihydro-2′H,15H-spiro[9,20-dioxa-13-thia-1,14-diazatetracyclo[14.7.2.0^3,6.0^19,24]pentacosa-16,18,24-triene-22,1′-naphthalen]-15-one 13,13-dioxide]	7.75
